We go through two molecules from article PMC7866079, “Investigation of Receptor Heteromers Using NanoBRET Ligand Binding” (International Journal of Molecular Sciences, 2021).

One test concerns the target T1, β2AR (Homo sapiens, UniProt P07550).
T1 construct: host or cells: HEK293FT, transient transfection
In words: NanoBRET saturation ligand binding, cells expressing Nluc-β2AR. On the procedure:
(§1) All individual experiments were conducted with duplicate wells.
(§2) All data were presented and analyzed using GraphPad Prism 8.0. Saturation binding data were fitted with one-site nonlinear regression for specific binding. Competition binding data were fitted using logarithmic nonlinear regression (three parameter). Statistical analysis was performed as described in the relevant figure/table legends or in the text, with p < 0.05 considered significant.

The target in the next test is T2, AT1-β2AR heteromer (Homo sapiens, UniProt P07550).
T2 construct: expressed in transfected cells; host or cells: HEK293FT, transient cotransfection
In words: NanoBRET saturation ligand binding, Receptor-HIT configuration, cells expressing Nluc-AT1 + β2AR. Conditions: mean ± SEM, n = 8, BODIPY-propranolol saturation, non-specific binding with 10 μM propranolol, read-out: Kd (affinity of binding to AT1-β2AR heteromers). On the procedure:
as §1, §2
Background: BRET reads energy transfer from a luciferase to a nearby fluorophore.

In another test the target is T3, AT1 receptor (Homo sapiens, UniProt P30556).
T3 construct: host or cells: HEK293FT, transient transfection
T3 sequence (P30556 1-359): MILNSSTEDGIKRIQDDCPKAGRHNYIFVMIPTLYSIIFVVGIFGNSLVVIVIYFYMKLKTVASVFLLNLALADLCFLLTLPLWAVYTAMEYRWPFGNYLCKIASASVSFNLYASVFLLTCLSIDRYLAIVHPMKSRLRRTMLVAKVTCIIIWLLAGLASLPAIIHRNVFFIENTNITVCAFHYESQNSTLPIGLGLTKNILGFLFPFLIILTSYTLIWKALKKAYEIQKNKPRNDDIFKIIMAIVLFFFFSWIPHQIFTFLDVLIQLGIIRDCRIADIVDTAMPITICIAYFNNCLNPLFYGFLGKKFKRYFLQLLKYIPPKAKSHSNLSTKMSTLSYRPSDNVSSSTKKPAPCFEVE
Briefly: NanoBRET competition binding of TAMRA-AngII, cells expressing Nluc-AT1. Conditions: various concentrations of TAMRA-AngII, increasing concentrations of competitor. As to the method: Figure 8 Competition binding of TAMRA-AngII to the AT1 receptor and the AT1-AT2 heteromer.
The relative BRET ratio was calculated by normalizing the data, as described in the figure legends. All individual experiments were conducted with duplicate wells.

Molecules are shown by their SMILES.

T1 sequence (P07550 whole entry): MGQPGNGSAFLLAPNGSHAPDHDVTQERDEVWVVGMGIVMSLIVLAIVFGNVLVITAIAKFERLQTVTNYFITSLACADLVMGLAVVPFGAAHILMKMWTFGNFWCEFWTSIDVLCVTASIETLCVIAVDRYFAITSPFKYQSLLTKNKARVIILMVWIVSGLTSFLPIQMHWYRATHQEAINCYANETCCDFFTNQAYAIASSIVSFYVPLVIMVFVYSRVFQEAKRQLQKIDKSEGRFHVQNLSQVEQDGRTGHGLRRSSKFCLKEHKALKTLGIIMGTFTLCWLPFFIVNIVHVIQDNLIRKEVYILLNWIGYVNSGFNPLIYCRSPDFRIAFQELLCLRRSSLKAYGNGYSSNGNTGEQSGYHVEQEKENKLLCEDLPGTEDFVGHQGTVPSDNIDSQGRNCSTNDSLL
T2 sequence (P07550 whole entry, one chain of several): as the sequence (P07550 whole entry) above

Broadly, the Kd is the concentration at which binding is half-saturated. As for `CC[C@H](C)[C@H](NC(=O)[C@H](Cc1ccc(O)cc1)NC(=O)[C@@H](NC(=O)[C@H](CCCNC(=N)N)NC(=O)[C@H](CC(=O)O)NC(=O)CCCCCNC(=O)COc1ccc(/C=C/c2ccc3n2[B-](F)(F)[N+]2=C(c4cccs4)C=CC2=C3)cc1)C(C)C)C(=O)N[C@@H](Cc1c[nH]cn1)C(=O)N1CCC[C@H]1C(=O)N[C@@H](Cc1ccccc1)C(=O)O` [BODIPY-AngII], the “specific binding to Nluc-β2AR” value at β2AR (cells expressing Nluc-β2AR only, presence or absence of 10 μM propranolol) is “no specific binding”. The Kd is 3.9 ± 0.5 nM on β2AR (mean ± SEM, n = 4, cells expressing Nluc-β2AR, BODIPY-propranolol saturation, non-specific binding with 10 μM propranolol, read-out: Kd (affinity of binding to β2ARs)) and 8.8 ± 4 nM at AT1-β2AR heteromer.

`Cc1cc(Cn2cnc3c2C[C@@H](C(=O)O)N(C(=O)C(c2ccccc2)c2ccccc2)C3)ccc1N(C)C` [PD 123319]: on AT1 receptor, the “displacement of TAMRA-AngII bound to Nluc-AT1” value is “unable to see any displacement”.
